{"source": "patent US9113629B2", "about": "“4-amino-6-(4-substituted-phenyl)-picolinates and 6-amino-2-(4-substituted-phenyl)-pyrimidine-4-carboxylates and their use as herbicides” (DOW AGROSCIENCES LLC, priority 2013, dated 2015)", "key": {"[1]": {"system": "Key Grass and Sedge Weeds as well as Grass Crops", "test": "Post-emergent Test II herbicidal activity (Table 6)", "assay_type": "in vivo", "conditions": "post-emergence, 336 h; for pest or weed control at 66 g/ha: 66 g ai/ha; for pest or weed control at 132 g/ha: 132 g ai/ha", "how_it_was_run": "(§1)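 Foliar application at 187 L/ha to greenhouse-grown seedlings (first or second true leaf); subirrigation thereafter. Visual 0–100% injury at 14 d relative to untreated plants.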"}, "[2]": {"system": "Key Broadleaf Weed and Crop Species", "test": "Post-emergent Test II herbicidal activity (Table 5)", "assay_type": "in vivo", "conditions": "post-emergence, 336 h, 14 days after application; for pest or weed control at 66 g/ha: application rate 66 g ai/ha; for pest or weed control at 132 g/ha: application rate 132 g ai/ha", "how_it_was_run": "as §1"}, "[3]": {"conditions": "CYPES: yellow nutsedge (Cyperus esculentus), read-out: Visual Growth Reduction (%) 14 Days After Application, CYPES"}, "[4]": {"conditions": "DIGSA: crabgrass (Digitaria sanguinalis), read-out: Visual Growth Reduction (%) 14 Days After Application, DIGSA"}, "[5]": {"conditions": "ECHCG: barnyardgrass (Echinochloa crus-galli), read-out: Visual Growth Reduction (%) 14 Days After Application, ECHCG"}, "[6]": {"conditions": "ORYSA: rice (Oryza sativa), crop, read-out: Visual Growth Reduction (%) 14 Days After Application, ORYSA"}, "[7]": {"conditions": "SETFA: giant foxtail (Setaria faberi), read-out: Visual Growth Reduction (%) 14 Days After Application, SETFA"}, "[8]": {"conditions": "SORVU: grain sorghum (Sorghum vulgare), read-out: Visual Growth Reduction (%) 14 Days After Application, SORVU"}, "[9]": {"conditions": "TRZSS (wheat, Triticum aestivum), crop, read-out: Visual Growth Reduction (%) 14 Days After Application, TRZSS"}, "[10]": {"conditions": "ZEAMX: maize, corn (Zea mays), crop, read-out: Visual Growth Reduction (%) 14 Days After Application, ZEAMX"}, "[11]": {"conditions": "ABUTH: velvetleaf (Abutilon theophrasti), read-out: Visual Growth Reduction (%) 14 Days After Application, ABUTH"}, "[12]": {"conditions": "AMARE: redroot pigweed (Amaranthus retroflexus), read-out: Visual Growth Reduction (%) 14 Days After Application, AMARE"}, "[13]": {"conditions": "BRSNN: oilseed-rape, canola (Brassica napus), read-out: Visual Growth Reduction (%) 14 Days After Application, BRSNN"}, "[14]": {"conditions": "CHEAL: lambsquarters (Chenopodium album), read-out: Visual Growth Reduction (%) 14 Days After Application, CHEAL"}, "[15]": {"conditions": "EPHHL: wild poinsettia (Euphorbia heterophylla), read-out: Visual Growth Reduction (%) 14 Days After Application, EPHHL"}, "[16]": {"conditions": "HELAN: sunflower (Helianthus annuus), read-out: Visual Growth Reduction (%) 14 Days After Application, HELAN"}, "[17]": {"conditions": "VIOTR: wild pansy (Viola tricolor), read-out: Visual Growth Reduction (%) 14 Days After Application, VIOTR"}}, "note": "Read-outs that look alike come from different tables or passages of the source.", "data": [{"smiles": "COC(=O)c1nc(-c2ccc(C)c(F)c2)c(F)c(N)c1Cl", "note": "[Compound 213]", "values": [{"measurement": "pest or weed control at 66 g/ha", "setting": "[1]; [3]", "result": "0 to 29", "unit": "%"}, {"measurement": "pest or weed control at 132 g/ha", "setting": "[1]; [3]", "result": "45 to 59", "unit": "%"}, {"measurement": "pest or weed control at 66 g/ha", "setting": "[1]; [4]", "result": "0 to 29", "unit": "%"}, {"measurement": "pest or weed control at 132 g/ha", "setting": "[1]; [4]", "result": "0 to 29", "unit": "%"}, {"measurement": "pest or weed control at 66 g/ha", "setting": "[1]; [5]", "result": "85 to 94", "unit": "%"}, {"measurement": "pest or weed control at 132 g/ha", "setting": "[1]; [5]", "result": "85 to 94", "unit": "%"}, {"measurement": "pest or weed control at 66 g/ha", "setting": "[1]; [6]", "result": "0 to 29", "unit": "%"}, {"measurement": "pest or weed control at 132 g/ha", "setting": "[1]; [6]", "result": "0 to 29", "unit": "%"}, {"measurement": "pest or weed control at 66 g/ha", "setting": "[1]; [7]", "result": "0 to 29", "unit": "%"}, {"measurement": "pest or weed control at 132 g/ha", "setting": "[1]; [7]", "result": "0 to 29", "unit": "%"}, {"measurement": "pest or weed control at 66 g/ha", "setting": "[1]; [8]", "result": "75 to 84", "unit": "%"}, {"measurement": "pest or weed control at 132 g/ha", "setting": "[1]; [8]", "result": "95 to 100", "unit": "%"}, {"measurement": "pest or weed control at 66 g/ha", "setting": "[1]; [9]", "result": "0 to 29", "unit": "%"}, {"measurement": "pest or weed control at 132 g/ha", "setting": "[1]; [9]", "result": "0 to 29", "unit": "%"}, {"measurement": "pest or weed control at 66 g/ha", "setting": "[1]; [10]", "result": "60 to 74", "unit": "%"}, {"measurement": "pest or weed control at 132 g/ha", "setting": "[1]; [10]", "result": "75 to 84", "unit": "%"}, {"measurement": "melting point", "result": 127, "unit": "°C"}, {"measurement": "pest or weed control at 66 g/ha", "setting": "[2]; [11]", "result": "95 to 100", "unit": "%"}, {"measurement": "pest or weed control at 132 g/ha", "setting": "[2]; [11]", "result": "95 to 100", "unit": "%"}, {"measurement": "pest or weed control at 66 g/ha", "setting": "[2]; [12]", "result": "95 to 100", "unit": "%"}, {"measurement": "pest or weed control at 132 g/ha", "setting": "[2]; [12]", "result": "95 to 100", "unit": "%"}, {"measurement": "pest or weed control at 66 g/ha", "setting": "[2]; [13]", "result": "85 to 94", "unit": "%"}, {"measurement": "pest or weed control at 132 g/ha", "setting": "[2]; [13]", "result": "85 to 94", "unit": "%"}, {"measurement": "pest or weed control at 66 g/ha", "setting": "[2]; [14]", "result": "95 to 100", "unit": "%"}, {"measurement": "pest or weed control at 132 g/ha", "setting": "[2]; [14]", "result": "95 to 100", "unit": "%"}, {"measurement": "pest or weed control at 66 g/ha", "setting": "[2]; [15]", "result": "95 to 100", "unit": "%"}, {"measurement": "pest or weed control at 132 g/ha", "setting": "[2]; [15]", "result": "95 to 100", "unit": "%"}, {"measurement": "pest or weed control at 66 g/ha", "setting": "[2]; [16]", "result": "95 to 100", "unit": "%"}, {"measurement": "pest or weed control at 132 g/ha", "setting": "[2]; [16]", "result": "95 to 100", "unit": "%"}, {"measurement": "pest or weed control at 66 g/ha", "setting": "[2]; [17]", "result": "0 to 29", "unit": "%"}, {"measurement": "pest or weed control at 132 g/ha", "setting": "[2]; [17]", "result": "0 to 29", "unit": "%"}]}]}
